Test results published in paper PMC3862409 (International Journal for Parasitology, Drugs and Drug …, 2013).
Where a chain is given by its changes, count along the chain named. “Also recorded” adds a separate entry of the source.

Key:
TbHK1 [1] = target: T1, TbHK1 (Trypanosoma brucei brucei, UniProt Q38C42); settings: ref Sharlow et al., 2010b, cited from earlier work; for Inhibition of TbHK1: LOPAC screen, at 10 μM
T1 sequence (Q38C42 1-471): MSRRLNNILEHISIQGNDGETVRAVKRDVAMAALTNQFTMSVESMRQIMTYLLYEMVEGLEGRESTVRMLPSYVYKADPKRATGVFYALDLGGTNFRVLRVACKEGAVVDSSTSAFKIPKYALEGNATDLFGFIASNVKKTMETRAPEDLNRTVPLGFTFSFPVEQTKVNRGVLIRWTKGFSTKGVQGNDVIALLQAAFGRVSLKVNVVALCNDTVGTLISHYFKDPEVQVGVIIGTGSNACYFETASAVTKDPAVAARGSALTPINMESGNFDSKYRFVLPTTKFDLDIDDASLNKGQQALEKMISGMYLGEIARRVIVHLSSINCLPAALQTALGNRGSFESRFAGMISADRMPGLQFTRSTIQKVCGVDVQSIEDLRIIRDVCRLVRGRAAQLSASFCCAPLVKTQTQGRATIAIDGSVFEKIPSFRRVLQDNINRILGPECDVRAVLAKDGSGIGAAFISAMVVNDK

T. brucei parasites = settings: ref Sharlow et al., cited from earlier work; for EC50: read-out: EC50 against parasites, unit inferred, 2010a,b; for Toxicity to parasites: 2010b
parasite G6-P levels = settings: after acute exposure; ref Sharlow et al., 2010a,b; cited from earlier work
[2] = tested on: HK from Plasmodium falciparum (PfHK); settings: ref Harris et al., 2013, cited from earlier work
TbHK1 [3] = target: T1, TbHK1; assay: Native gel analysis of TbHK1 oligomerization; settings: data not shown
[4] = target: T2, T. brucei hexokinase 1 (TbHK1), WT (Trypanosoma brucei brucei, UniProt Q38C42); assay: Coupled hexokinase assay; type: biochemical
T2 sequence (Q38C42 1-471): T1 sequence (Q38C42 1-471)

TbHK1 C212S = target: T3, TbHK1 C212S (Trypanosoma brucei brucei, UniProt Q38C42, C212S); assay: Coupled hexokinase assay, TbHK1 Cys variant C212S; type: biochemical
T3 sequence (Q38C42 1-471 C212S): T1 sequence (Q38C42 1-471) with C212S

TbHK1 C242A = target: T4, TbHK1 C242A (Trypanosoma brucei brucei, UniProt Q38C42, C242A); assay: Coupled hexokinase assay, TbHK1 Cys variant C242A; type: biochemical
T4 sequence (Q38C42 1-471 C242A): T1 sequence (Q38C42 1-471) with C242A

TbHK1 C369A = target: T5, TbHK1 C369A (Trypanosoma brucei brucei, UniProt Q38C42, C369A); assay: Coupled hexokinase assay, TbHK1 Cys variant C369A; type: biochemical
T5 sequence (Q38C42 1-471 C369A): T1 sequence (Q38C42 1-471) with C369A

TbHK1 C401A = target: T6, TbHK1 C401A (Trypanosoma brucei brucei, UniProt Q38C42, C401A); assay: Coupled hexokinase assay, TbHK1 Cys variant C401A; type: biochemical
T6 sequence (Q38C42 1-471 C401A): T1 sequence (Q38C42 1-471) with C401A

TbHK1 C402A = target: T7, TbHK1 C402A (Trypanosoma brucei brucei, UniProt Q38C42, C402A); assay: Coupled hexokinase assay, TbHK1 Cys variant C402A; type: biochemical
T7 sequence (Q38C42 1-471 C402A): T1 sequence (Q38C42 1-471) with C402A

TbHK1 C445A = target: T8, TbHK1 C445A (Trypanosoma brucei brucei, UniProt Q38C42, C445A); assay: Coupled hexokinase assay, TbHK1 Cys variant C445A; type: biochemical
T8 sequence (Q38C42 1-471 C445A): T1 sequence (Q38C42 1-471) with C445A

[5] = tested on: glucose-6-phosphate dehydrogenase (G6PDH); assay: Counterscreen for inhibition of G6PDH; type: biochemical
[6] = tested on: human indoleamine 2,3-dioxygenase (IDO); settings: covalent modification of multiple Cys residues; ref Terentis et al., 2010; cited from earlier work
[7] = cited from earlier work

**Q.** Which “Inhibition of TbHK1” value (TbHK1 [1]) does the source give for O=C(O)c1cc[c]([Hg][Cl])cc1 [4-chloromercuribenzoic acid] here?
**A.** Its value is 84.7 ± 0.4%.

**Q.** Which EC50 (T. brucei parasites) does the source give for O=c1c2ccccc2sn1-c1ccccc1 [EbS, 2-phenyl-1,2-benzisothiazol-3(2H)-one] here?
**A.** Its EC50 is 30 ± 67 nM.

**Q.** And the Toxicity to parasites (T. brucei parasites)?
**A.** Its Toxicity to parasites is “toxic to parasites”.

**Q.** And the “Effect on parasite G6-P levels” value (parasite G6-P levels)?
**A.** Its value is “able to reduce parasite G6-P levels”.

**Q.** What about the “Reversibility of PfHK inhibition by dilution” value [2] of the same molecule?
**A.** The value was “completely relieved by dilution”.

**Q.** Which “Impact on oligomerization of TbHK1” value (TbHK1 [3]) does the source give for O=C(O)CCP(CCC(=O)O)CCC(=O)O [TCEP, tris (2-carboxyethyl)phosphine] here?
**A.** Its value is “neither EbSe nor TCEP impact oligomerization”.

**Q.** For O=c1c2ccccc2[se]n1-c1ccccc1 [EbSe, 2-phenyl-1,2-benzisoselenazol-3(2H)-one], which IC50 [4] is on record?
**A.** Its IC50 is 350 ± 70 nM.

**Q.** What about the “Reversibility of inhibition by dilution” value ([4]; 200-fold dilution of enzyme and inhibitor after pre-incubation) of the same molecule?
**A.** Its value is “not reversible; also recorded: irreversible”.

**Q.** What about the “Rescue of enzyme activity by DTT added after inhibitor incubation” value ([4]; DTT 100 mM added after incubation with inhibitor) of the same molecule?
**A.** The value was “only modestly rescued enzyme activity”.

**Q.** What about the “Relief of inhibition by excess Mg2+” value ([4]; Mg2+ at ~15-fold higher concentrations than standard reaction, data not shown) of the same molecule?
**A.** Its value is “did not relieve EbSe inhibition”.

**Q.** And the “Effect of pre-incubation of TbHK1 with DTT on inhibition” value ([4]; data not shown)?
**A.** The value was “prevented EbSe inhibition”.

**Q.** What about the “Effect of pre-incubation with MPB on inhibition” value ([4]; enzyme pre-incubated with MPB) of the same molecule?
**A.** The value was “did not appreciably alter EbSe inhibition”.

**Q.** What about the “Sensitivity of variant to inhibition” value (TbHK1 C212S) of the same molecule?
**A.** Its value is “remained sensitive”.

**Q.** And the IC50 (TbHK1 C212S; read-out: EbSe IC50, relative to WT)?
**A.** Its IC50 is < 350 nM.

**Q.** And the IC50 (TbHK1 C242A)?
**A.** The IC50 was 550 ± 20 nM.

**Q.** What about the IC50 (TbHK1 C369A) of the same molecule?
**A.** The IC50 was 260 ± 20 nM.

**Q.** And the IC50 (TbHK1 C401A)?
**A.** The IC50 was 290 ± 40 nM.

**Q.** What about the IC50 (TbHK1 C402A) of the same molecule?
**A.** Its IC50 is 430 ± 110 nM.

**Q.** What about the IC50 (TbHK1 C445A) of the same molecule?
**A.** Its IC50 is 520 ± 50 nM.

**Q.** And the “Inhibition of G6PDH in counterscreen” value [5]?
**A.** The value was “ineffective”.

**Q.** What about the “Impact on oligomerization of TbHK1” value (TbHK1 [3]) of the same molecule?
**A.** The value was “neither EbSe nor TCEP impact oligomerization”.

**Q.** And the “Inhibition of TbHK1” value (TbHK1 [1])?
**A.** Its value is 88.1 ± 0.6%.

**Q.** And the Mode of inhibition (TbHK1 [1]; with respect to ATP)?
**A.** The Mode of inhibition was “mixed inhibitors”.

**Q.** What about the EC50 (T. brucei parasites) of the same molecule?
**A.** Its EC50 is 2900 ± 280 nM.

**Q.** And the Toxicity to parasites (T. brucei parasites)?
**A.** Its Toxicity to parasites is “toxic to parasites”.

**Q.** What about the “Effect on parasite G6-P levels” value (parasite G6-P levels) of the same molecule?
**A.** Its value is “able to reduce parasite G6-P levels”.

**Q.** And the “Potency against PfHK relative to TbHK1” value ([2]; more potent on PfHK)?
**A.** The value was ~10 fold.

**Q.** And the “Reversibility of PfHK inhibition by dilution” value [2]?
**A.** The value was “completely relieved by dilution”.

**Q.** And the “Inhibition of human IDO” value [6]?
**A.** The value was “inhibited”.

**Q.** And the Toxicity to humans ([7]; human, in vivo)?
**A.** Its Toxicity to humans is “non-toxic”.

**Q.** And the “Outcome of patients suffering stroke” value ([7]; ref Yamaguchi et al., 1998)?
**A.** The value was “improve the outcome”.

**Q.** Which “Impact on enzyme activity” value ([4]; MPB at concentrations up to 50 μM) does the source give for O=C(CCCCC1SCC2NC(=O)NC21)NCCCCC(NC(=O)CCN1C(=O)C=CC1=O)C(=O)O (stereo not drawn) [MPB, 3-(N-maleimidopropionyl)-biocytin] here?
**A.** The value was “did not impact enzyme activity”.

**Q.** With O[C@@H](CS)[C@@H](O)CS (racemic) [DTT, dithiothreitol] as the molecule, how does the “Impact on enzyme activity” value ([4]; DTT alone, 100 mM) read?
**A.** Its value is “little impact on enzyme activity”.
